Format in all cases: in vivo
The subject of test [1] is Euphorbia (Eupho). The test can be described thus: Post-emergence herbicidal action (Example B2). On the set-up: key: 1=total damage; 9=no action; Ratings of from 1 to 4 (especially from 1 to 3) indicate good to very good herbicidal action. As to conditions: 1000 g of active ingredient/ha, evaluated after 2 to 3 weeks, scale 1-9. The procedure: (§1) Monocotyledonous and dicotyledonous test plants are sown in standard soil in pots. When the test plants are at the 2- to 3-leaf stage, the test compounds, in the form of an aqueous suspension (prepared from a wettable powder (Example F3, b) according to WO 97/34485) or in the form of an emulsion (prepared from an emulsifiable concentrate (Example F1, c) according to WO 97/34485), are applied by spraying in an optimum concentration (500 litres of water/ha). The test plants are then grown on in a greenhouse under optimum conditions. After a test duration of 2 to 3 weeks, the test is evaluated in accordance with a scale of nine ratings (1=total damage, 9=no action). Ratings of from 1 to 4 (especially from 1 to 3) indicate good to very good herbicidal action. Test plants: Setaria (Seta), Panicum (Pani), Echinochloa (Ds) (Echino), Amaranthus (Amar), Chenopodium (Cheno), Stellaria (Stella), Veronica, Euphorbia (Eupho).

Test [2] relates to Amaranthus (Amar). The test can be described thus: Post-emergence herbicidal action (Example B2). On the set-up: key: 1=total damage; 9=no action; Ratings of from 1 to 4 (especially from 1 to 3) indicate good to very good herbicidal action. To be noted: 1000 g of active ingredient/ha, evaluated after 2 to 3 weeks, scale 1-9. The procedure: as §1
The test system of test [3] is Chenopodium (Cheno). The test can be described thus: Post-emergence herbicidal action (Example B2). As to conditions: 1000 g of active ingredient/ha, evaluated after 2 to 3 weeks, scale 1-9. The procedure:
as §1

Test [4] has as its system Echinochloa (Ds) (Echino). Kind of test: Post-emergence herbicidal action (Example B2). To be noted: 1000 g of active ingredient/ha, evaluated after 2 to 3 weeks, scale 1-9. The procedure:
as §1

Test [5] has as its system Setaria (Seta). The test can be described thus: Post-emergence herbicidal action (Example B2). As to conditions: 1000 g of active ingredient/ha, evaluated after 2 to 3 weeks, scale 1-9. The procedure: as §1
Test [6] concerns Panicum (Pani). Kind of test: Post-emergence herbicidal action (Example B2). As to conditions: 1000 g of active ingredient/ha, evaluated after 2 to 3 weeks, scale 1-9. The procedure: as §1
Test [7] concerns Echinochloa (Ds) (Echino). Kind of test: Pre-emergence herbicidal action (Example B1). On the set-up: key: 1=total damage; 9=no action; Ratings of from 1 to 4 (especially from 1 to 3) indicate good to very good herbicidal action. To be noted: 1000 g of active ingredient/ha, 4 weeks, scale of nine ratings. The procedure: as §1, with “Immediately after sowing,” for “When the test plants are at the 2- to 3-leaf stage,”, “grown” for “grown on”, “4” for “2 to 3”, “(Eupho), Brachiaria (Brachi).” for “(Eupho).”

In test [8] the test system is Setaria (Seta). Kind of test: Pre-emergence herbicidal action (Example B1). To be noted: 1000 g of active ingredient/ha, 4 weeks, scale of nine ratings. On the set-up: key: 1=total damage; 9=no action; Ratings of from 1 to 4 (especially from 1 to 3) indicate good to very good herbicidal action. The procedure:
as §1, with “Immediately after sowing,” for “When the test plants are at the 2- to 3-leaf stage,”, “grown” for “grown on”, “4” for “2 to 3”, “(Eupho), Brachiaria (Brachi).” for “(Eupho).”

Test [9] deals with Euphorbia (Eupho). The test can be described thus: Pre-emergence herbicidal action (Example B1). On the set-up: key: 1=total damage; 9=no action; Ratings of from 1 to 4 (especially from 1 to 3) indicate good to very good herbicidal action. To be noted: 1000 g of active ingredient/ha, 4 weeks, scale of nine ratings. The procedure:
as §1, with “Immediately after sowing,” for “When the test plants are at the 2- to 3-leaf stage,”, “grown” for “grown on”, “4” for “2 to 3”, “(Eupho), Brachiaria (Brachi).” for “(Eupho).”

Test [10] deals with Amaranthus (Amar). Kind of test: Pre-emergence herbicidal action (Example B1). On the set-up: key: 1=total damage; 9=no action; Ratings of from 1 to 4 (especially from 1 to 3) indicate good to very good herbicidal action. To be noted: 1000 g of active ingredient/ha, 4 weeks, scale of nine ratings. The procedure:
as §1, with “Immediately after sowing,” for “When the test plants are at the 2- to 3-leaf stage,”, “grown” for “grown on”, “4” for “2 to 3”, “(Eupho), Brachiaria (Brachi).” for “(Eupho).”

In test [11] the test system is Panicum (Pani). The test can be described thus: Pre-emergence herbicidal action (Example B1). On the set-up: key: 1=total damage; 9=no action; Ratings of from 1 to 4 (especially from 1 to 3) indicate good to very good herbicidal action. To be noted: 1000 g of active ingredient/ha, 4 weeks, scale of nine ratings. The procedure:
as §1, with “Immediately after sowing,” for “When the test plants are at the 2- to 3-leaf stage,”, “grown” for “grown on”, “4” for “2 to 3”, “(Eupho), Brachiaria (Brachi).” for “(Eupho).”

In another test the test system is Brachiaria (Brachi). Kind of test: Pre-emergence herbicidal action (Example B1). On the set-up: key: 1=total damage; 9=no action; Ratings of from 1 to 4 (especially from 1 to 3) indicate good to very good herbicidal action. To be noted: 1000 g of active ingredient/ha, 4 weeks, scale of nine ratings. The procedure: as §1, with “Immediately after sowing,” for “When the test plants are at the 2- to 3-leaf stage,”, “grown” for “grown on”, “4” for “2 to 3”, “(Eupho), Brachiaria (Brachi).” for “(Eupho).”

The subject of test [12] is Veronica. Kind of test: Pre-emergence herbicidal action (Example B1). As to conditions: 1000 g of active ingredient/ha, 4 weeks, scale of nine ratings. The procedure: as §1, with “Immediately after sowing,” for “When the test plants are at the 2- to 3-leaf stage,”, “grown” for “grown on”, “4” for “2 to 3”, “(Eupho), Brachiaria (Brachi).” for “(Eupho).”
For test [13], the system named is Veronica. The test can be described thus: Post-emergence herbicidal action (Example B2). As to conditions: 1000 g of active ingredient/ha, evaluated after 2 to 3 weeks, scale 1-9. The procedure:
as §1

Test [14] relates to Stellaria (Stella). Kind of test: Post-emergence herbicidal action (Example B2). To be noted: 1000 g of active ingredient/ha, evaluated after 2 to 3 weeks, scale 1-9. The procedure:
as §1

Test [15] concerns Chenopodium (Cheno). Kind of test: Pre-emergence herbicidal action (Example B1). On the set-up: key: 1=total damage; 9=no action; Ratings of from 1 to 4 (especially from 1 to 3) indicate good to very good herbicidal action. As to conditions: 1000 g of active ingredient/ha, 4 weeks, scale of nine ratings. The procedure:
as §1, with “Immediately after sowing,” for “When the test plants are at the 2- to 3-leaf stage,”, “grown” for “grown on”, “4” for “2 to 3”, “(Eupho), Brachiaria (Brachi).” for “(Eupho).”

Test [16] relates to Stellaria (Stella). Kind of test: Pre-emergence herbicidal action (Example B1). As to conditions: 1000 g of active ingredient/ha, 4 weeks, scale of nine ratings. On the set-up: key: 1=total damage; 9=no action; Ratings of from 1 to 4 (especially from 1 to 3) indicate good to very good herbicidal action. The procedure: as §1, with “Immediately after sowing,” for “When the test plants are at the 2- to 3-leaf stage,”, “grown” for “grown on”, “4” for “2 to 3”, “(Eupho), Brachiaria (Brachi).” for “(Eupho).”

SMILES strings stand for the structures.

In the case of `COc1cc(Cl)cnc1OCC#Cc1cccc(OCC#N)n1` [1.063, 2-[3-(6-cyanomethoxy-pyrid-2-yl)-prop-2-ynyloxy]-5-chloro-3-methoxypyridine], the “Post-emergence herbicidal action rating, Eupho” value in the test with Euphorbia (Eupho) [1] was 1. Further, the “Post-emergence herbicidal action rating, Amar” value in the test on Amaranthus (Amar) [2] stood at 2. Further, the “Post-emergence herbicidal action rating, Cheno” value with Chenopodium (Cheno) [3] is given as 2. For the same molecule, the “Post-emergence herbicidal action rating, Echino (Ds)” value in [4] was 3. For the same molecule, in the test on Setaria (Seta) [5], the “Post-emergence herbicidal action rating, Seta” value was determined as 5. In addition, the “Post-emergence herbicidal action rating, Pani” value in the test on Panicum (Pani) [6] is 3. Also, the “Herbicidal rating Echino (Ds)” value in test [7] came out at 4. The “Herbicidal rating Seta” value in the test with Setaria (Seta) [8] is reported as 2. In addition, the “Herbicidal rating Eupho” value in the test on Euphorbia (Eupho) [9] amounted to 1. For the same molecule, the “Herbicidal rating Amar” value in the test on Amaranthus (Amar) [10] was 1. Besides, the “Herbicidal rating Pani” value with Panicum (Pani) [11] was 1. The “Herbicidal rating Brachi” value with Brachiaria (Brachi) was determined as 1.

Turning to `COc1cc(F)cnc1OCC#Cc1ccc(Cl)nc1` [2.005, 2-[3-(6-chloro-pyrid-3-yl)-prop-2-ynyloxy]-5-fluoro-3-methoxy-pyridine], the “Herbicidal rating Veronica” value with Veronica [12] came out at 4. For the same molecule, the “Post-emergence herbicidal action rating, Eupho” value with Euphorbia (Eupho) [1] was determined as 1. Further, the “Post-emergence herbicidal action rating, Amar” value in the test on Amaranthus (Amar) [2] was determined as 1. In addition, the “Post-emergence herbicidal action rating, Cheno” value in the test on Chenopodium (Cheno) [3] came out at 3. Further, the “Post-emergence herbicidal action rating, Seta” value in the test on Setaria (Seta) [5] stood at 3. Also, the “Post-emergence herbicidal action rating, Veronica” value in the test on Veronica [13] is 2. In addition, in the test with Panicum (Pani) [6], the “Post-emergence herbicidal action rating, Pani” value was found to be 4. Moreover, the “Post-emergence herbicidal action rating, Stella” value with Stellaria (Stella) [14] is recorded as 2. Also, the “Herbicidal rating Cheno” value in the test on Chenopodium (Cheno) [15] amounted to 1. The “Herbicidal rating Echino (Ds)” value in test [7] is 1. Besides, the “Herbicidal rating Seta” value in the test with Setaria (Seta) [8] stood at 4. In addition, the “Herbicidal rating Eupho” value in the test on Euphorbia (Eupho) [9] turned out to be 5. In the test on Panicum (Pani) [11], the “Herbicidal rating Pani” value worked out at 4. Further, the “Herbicidal rating Brachi” value in the test on Brachiaria (Brachi) stood at 1. Moreover, the “Herbicidal rating Stella” value in the test with Stellaria (Stella) [16] turned out to be 1.

`COc1cc(Cl)cnc1OCC#Cc1ccc(Cl)nc1` [2.006, 5-chloro-2-[3-(6-chloro-pyrid-3-yl)-prop-2-ynyloxy]-3-methoxy-pyridine]: the “Herbicidal rating Veronica” value in the test on Veronica [12] is listed as 5. In the test on Euphorbia (Eupho) [1], the “Post-emergence herbicidal action rating, Eupho” value came to 1. In addition, the “Post-emergence herbicidal action rating, Amar” value in the test with Amaranthus (Amar) [2] was found to be 2. In addition, in the test on Chenopodium (Cheno) [3], the “Post-emergence herbicidal action rating, Cheno” value is given as 2. Besides, the “Post-emergence herbicidal action rating, Seta” value in the test on Setaria (Seta) [5] was determined as 2. In addition, in the test with Veronica [13], the “Post-emergence herbicidal action rating, Veronica” value stood at 2. Further, in the test with Panicum (Pani) [6], the “Post-emergence herbicidal action rating, Pani” value is 2. Further, in the test with Stellaria (Stella) [14], the “Post-emergence herbicidal action rating, Stella” value amounted to 2. For the same molecule, the “Herbicidal rating Echino (Ds)” value in test [7] stood at 1. The “Herbicidal rating Seta” value in the test on Setaria (Seta) [8] came out at 1. In addition, the “Herbicidal rating Eupho” value in the test on Euphorbia (Eupho) [9] came out at 1. The “Herbicidal rating Amar” value in the test on Amaranthus (Amar) [10] was determined as 1. Besides, the “Herbicidal rating Pani” value with Panicum (Pani) [11] was determined as 1. Also, the “Herbicidal rating Brachi” value with Brachiaria (Brachi) is listed as 1. In addition, in the test on Stellaria (Stella) [16], the “Herbicidal rating Stella” value is 1.
